Measurements from paper PMC11635053, “Development of a homotrimeric PSMA radioligand based on the NOTI chelating platform” (EJNMMI Radiopharmacy and Chemistry, 2024).
Like-named read-outs stand apart in the source and are kept apart here. Values belong to the compound of their own block, whether it stands above or below them.

Assays:
PSMA = molecular target: T1, PSMA (Homo sapiens, UniProt Q04609); experiment: Competitive binding assay in LNCaP cells with [177Lu]Lu-PSMA-617 as radioligand; settings: for IC50: LNCaP cells, radioligand [177Lu]Lu-PSMA-617, 2 h at r.t., read-out: IC50 (half maximum competitive inhibitory concentration)
T1 construct: host or cells: LNCaP
Method: In order to establish a structure–activity relationship, the binding affinity of the metal-free and ^natGa-complexes of the conjugates 7, 8, and 9 were determined in the PSMA-positive human prostate cancer cell line LNCaP by a competitive binding assay as previously reported using [^177Lu]Lu-PSMA-617 as the radioligand (Stemler et al. [2021]). The conjugate Glu-CO-Lys-Ahx-HBED-CC (PSMA-11) was included as the control.
The competitive binding assay was carried out using a MultiScreen®HTS Vacuum Manifold system (Merck, Germany) with 96-well filter plates. Serial dilutions of the metal-free conjugates and corresponding ^natGa complexes were prepared to obtain 7 final concentrations ranging from 0 to 1000 nM for each compound. PSMA-11 was also tested as control. Experiments were performed twice in triplicate for each compound. Freshly prepared ^177Lu-labeled PSMA-617 was used as the radioligand. A volume of 1 μL of [^177Lu]Lu-PSMA-617 stock solution (2.83 μM) was added into each tube of the dilution series (radioligand concentration 3.14 nM). For the experiment, 10^5 LNCaP cells were seeded into each well. The final volume of each well was 150 μL (100 μL cells in medium + 50 μL inhibitor in PBS). The experiment was incubated for 2 h at r.t. in a plate shaker. Then, the supernatants were removed by vacuum. Wells were furthermore washed out with ice-cold PBS (3 × 200 μL, pH 7.4). The filters were punched into tubes for the subsequent quantification of the activity in a Gamma-counter. A nonlinear regression algorithm was applied by the software GraphPad Prism to determine the specific inhibitory concentrations of 50% for the tested radiotracers.

human serum proteins = experiment: in vitro; type: in vitro ADME; settings: male; for Protein binding: 1 h; for fraction unbound at 1 h: Protein binding
Method: To determine the protein bound fraction of each trimeric radiotracer, 100 μL of the radiolabeling solution of the corresponding ^68Ga-labeled conjugate were added to preheated (37 °C) 1000 μL human serum (male, AB, Sigma Aldrich, USA) in triplicates. Samples were incubated for 1 h at 37 °C. After cooling to r.t., the samples were centrifuged utilizing molecular cutoff (30 kDa) centrifuge tubes at 4 G for 5 min at 4 °C. The filters were additionally rinsed with PBS buffer (2 × 100 μL). The background subtracted activity in the filters and the filtrates were determined in a Gamma counter and the percentage of protein bound fractions were calculated.

[1] = test system: PSMA-positive LNCaP cells; experiment: Cell uptake / internalization of 68Ga-labeled conjugates in LNCaP cells; type: cell-based, human; settings: 1 h incubation; for Cell uptake: in words
Method: Next, the cellular uptake of the ^68Ga-labeled conjugates 7, 8, and 9 as well as [^68Ga]Ga-PSMA-11 was determined in PSMA-positive LNCaP cells.
LNCaP cells were seeded (10^6 cells well^−1) in poly-L-lysine coated 6-well plates 24 h before the experiment. Experiments were performed twice in triplicate for each compound. The radiolabeling solutions of [^68Ga]Ga-7, [^68Ga]Ga-8, [^68Ga]Ga-9, and [^68Ga]Ga-PSMA-11 were first diluted with PBS (pH 7.4) to a concentration of […]. 100 µL of this dilution were added to 3900 µL PBS (pH 7.4) to obtain final stock solutions of each radiolabeled compound (0.025 nmol mL^−1).
On the day of the experiment, the medium was replaced by fresh preheated medium (1.4 mL w/o blocking, 1.3 mL with blocking) and the cells incubated for 1 h at 37 °C. Next, the blocking solution was added (100 μL, 2500 pmol) to the corresponding wells. Finally, the corresponding radiolabeled conjugate (100 μL, 2.5 pmol) was added to a final assay volume of 1.5 mL well^−1. After 1 h incubation time, the supernatants were removed and the cells were washed carefully with ice-cold PBS buffer (2 × 1 mL, pH 7.4) followed by a subsequent glycine–HCl washing step (50 mM, pH 2.8, 2 × 1 mL well^−1). Cells were incubated with the glycine–HCl solution for 4 min at r.t. Next, corresponding fractions were transferred into counting tubes. Subsequently, the cells were lysed by adding NaOH (2 × 1 mL well^−1, 0.1 M) and the lysed fractions were also transferred into counting tubes. As standards, 100 µL of each radiolabeled conjugate stock solution (0.025 nmol mL^−1, 2.5 pmol) were pipetted into counting tubes containing 2 mL PBS buffer. The activity of the standards, the surface bound fractions and the internalized fractions were measured in a Gamma counter. Means were calculated and subtracted by the background. The percentages of unspecific and specific cell-surface bound and internalized activity were calculated from the standards.

[2] = type: in vitro ADME; settings: 2 h
Method: 100 μL of the radiolabeling solution of each ^68Ga-labeled tracer were added to preheated (37 °C) 1000 μL human serum (male, AB, Sigma Aldrich, USA) in triplicates and incubated at 37 °C. At 1 and 2 h, 100 µL aliquots were taken, mixed with 100 µL ice-cold acetonitrile, and centrifuged at 4 G for 5 min at 4 °C. The corresponding filtrates were kept on ice until HPLC analysis. The supernatants were then analyzed by radio-RP-HPLC and fractions of intact compounds were calculated from the HPLC chromatograms. (gradient 4,Gamma-ray detector: 100–900 keV, injection volume: 20 μl). tR ([^68Ga]Ga-7) = 12.1 min, tR ([^68Ga]Ga-8) = 14.4 min, tR ([^68Ga]Ga-9) = 25.2 min.

[3] = test system: patient with metastatic prostate cancer; experiment: Clinical PET/CT imaging; settings: patient, 1 h p.i.
Method: PET/CT was performed approximately 1, 2, and 3 h after intravenous injection of 107 MBq of [^68Ga]Ga-9 and 1 h after injection of 113 MBq [^68Ga]Ga-PSMA-11 in a patient with metastatic prostate cancer. Whole body imaging extending from vertex to mid-femur was performed in 3D-ToF mode on a Biograph mCT 40 scanner (Siemens Medical Solutions, Knoxville, TN, USA) with an extended field of view of 21.4 cm. PET acquisition time was 3 min bed position^−1. Low-dose CT acquisition was performed for attenuation correction and anatomical localization using an X-ray tube voltage of 120 kV and a modulation of the tube current (maximal tube current: 30 mA; CARE Dose 4D software Siemens Healthineers, Erlangen, Germany) followed by reconstruction with a soft tissue reconstruction kernel (Bf37) to a slice thickness of 5 mm (increment 2–4 mm). PET emission data were additionally corrected for decay, randoms and scatter and reconstructed applying an iterative 3D ordered subset expectation maximization algorithm (3 iterations; 21 subsets) withGaussian filtering to transaxial resolution of 5 mm at full width at half maximum. The matrix size was 200 × 200 mm and the reconstructed pixel size was 5.0 mm.

[4] = test system: LNCaP xenograft bearing mice; settings: 1 h p.i., cited from earlier work
patients = settings: cited from earlier work; for Injected activity excreted: patients, ref Kurth et al. [2018]
[5] = 2.5 pmol per 10^6 cells, 68Ga-labeled
[6] = lesions listed as 1 × prostate, 2 × lymph node metastasis

T1 sequence (Q04609 whole entry): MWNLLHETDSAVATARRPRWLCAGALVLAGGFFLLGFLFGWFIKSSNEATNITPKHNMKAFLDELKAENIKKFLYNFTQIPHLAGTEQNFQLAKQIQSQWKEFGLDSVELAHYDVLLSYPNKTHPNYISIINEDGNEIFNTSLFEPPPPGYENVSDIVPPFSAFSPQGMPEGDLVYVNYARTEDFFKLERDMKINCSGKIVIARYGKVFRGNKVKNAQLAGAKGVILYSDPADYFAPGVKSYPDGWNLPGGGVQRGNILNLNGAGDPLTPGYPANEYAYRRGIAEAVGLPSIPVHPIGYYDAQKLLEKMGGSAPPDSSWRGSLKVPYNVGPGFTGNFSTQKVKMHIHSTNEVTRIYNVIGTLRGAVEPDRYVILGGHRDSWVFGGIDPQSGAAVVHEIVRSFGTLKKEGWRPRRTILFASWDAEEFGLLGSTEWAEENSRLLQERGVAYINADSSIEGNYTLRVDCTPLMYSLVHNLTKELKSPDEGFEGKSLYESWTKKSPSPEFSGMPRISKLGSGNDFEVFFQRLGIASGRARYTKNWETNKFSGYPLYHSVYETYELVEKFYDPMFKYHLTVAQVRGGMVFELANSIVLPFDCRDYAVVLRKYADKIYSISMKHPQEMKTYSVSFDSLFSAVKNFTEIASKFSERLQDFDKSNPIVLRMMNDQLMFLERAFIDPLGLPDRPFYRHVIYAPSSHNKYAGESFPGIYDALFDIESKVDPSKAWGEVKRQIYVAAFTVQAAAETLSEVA

Compound: O=C([O-])CN(CCN(CC(=O)[O-])Cc1cc(CCC(=O)NCCCCCC(=O)NCCCC[C@H](NC(=O)N[C@@H](CCC(=O)O)C(=O)O)C(=O)O)ccc1[O-])Cc1cc(CCC(=O)O)ccc1[O-].[68Ga+3].[OH3+] [[^68Ga]Ga-PSMA-11, reference compound]
SUVpeak in the parotid gland [3]: 37.0 | SUVpeak in the submandibular gland [3]: 31.6 | SUVpeak kidneys [3]: 126.3 | SUVpeak liver [3]: 8.5 | SUVpeak, first target lesion [3, 6]: 35.3 | SUVpeak, second target lesion [3, 6]: 16.3 | SUVpeak, third target lesion [3, 6]: 20.6 | Cell internalization [1, 5]: 5.2 ± 0.2% | Cell-surface bound fraction [1, 5]: 4.5 ± 0.2% | Kidney uptake ([4]; ref Benešová et al. ([2015])): 187.4 ± 25.3 % IA g^−1 | Tumor uptake ([4]; ref Benešová et al. ([2015])): 10.58 ± 4.5 % IA g^−1 | Tumor-to-kidney ratio ([4]; ref Benešová et al. ([2015])): 0.06 | Kidney uptake ([4]; ref Eder et al. ([2012])): 139.4 ± 21.4 % IA g^−1 | Liver uptake ([4]; ref Eder et al. ([2012])): 0.87 ± 0.05 % IA g^−1 | Tumor uptake ([4]; ref Eder et al. ([2012])): 7.70 ± 1.45 % IA g^−1 | Tumor-to-kidney ratio ([4]; ref Eder et al. ([2012])): 0.06 | Tumor-to-liver ratio ([4]; ref Eder et al. ([2012])): 8.85

Compound: O=C(O)CC[C@H](NC(=O)N[C@@H](CCCCNC(=O)CCCCn1ccnc1CN1CCN(Cc2nccn2CCCCC(=O)NCCCC[C@H](NC(=O)N[C@@H](CCC(=O)O)C(=O)O)C(=O)O)CCN(Cc2nccn2CCCCC(=O)NCCCC[C@H](NC(=O)N[C@@H](CCC(=O)O)C(=O)O)C(=O)O)CC1)C(=O)O)C(=O)O [^nat/68Ga-7, metal not drawn]
Protein binding (human serum proteins): 63.8 ± 4.0% | fraction unbound at 1 h (human serum proteins): ~0.36 | IC50 (PSMA): 450 nM | Cell uptake [1]: negligible | Metabolic stability in human serum [2]: no significant degradation

Compound: [^177Lu]Lu-PSMA-617
Patients that may not respond to therapy (patients; PSMA targeted radioligand therapy, ref Kratochwil et al. [2016]): more than 30% | Injected activity excreted (patients; by 12 h): ~70% | Injected activity excreted (patients; within 4 h of administration): 50% | Kidney uptake ([4]; ref Benešová et al. ([2015])): 137.2 ± 77.8 % IA g^−1 | Liver uptake ([4]; ref Benešová et al. ([2015])): 0.22 ± 0.08 % IA g^−1 | Tumor uptake ([4]; ref Benešová et al. ([2015])): 11.20 ± 4.17 % IA g^−1 | Tumor-to-kidney ratio ([4]; ref Benešová et al. ([2015])): 0.08 | Tumor-to-liver ratio ([4]; ref Benešová et al. ([2015])): 50.91

Further lines, with some results ahead:

IC50 (PSMA): 65 nM | Factor by which affinity is lower compared to PSMA-11 (PSMA; LNCaP competitive binding, metal-free conjugate): ~ 3
Compound: O=C(O)CC[C@H](NC(=O)N[C@@H](CCCCNC(=O)CCCCCNC(=O)CCCCn1ccnc1CN1CCN(Cc2nccn2CCCCC(=O)NCCCCCC(=O)NCCCC[C@H](NC(=O)N[C@@H](CCC(=O)O)C(=O)O)C(=O)O)CCN(Cc2nccn2CCCCC(=O)NCCCCCC(=O)NCCCC[C@H](NC(=O)N[C@@H](CCC(=O)O)C(=O)O)C(=O)O)CC1)C(=O)O)C(=O)O [Compound 8, (3S,3'S,3''S,7S,7'S,7''S)−24,24',24''-(((1,4,7-triazonane-1,4,7-triyl)tris(methylene))tris(1H-imidazole-2,1-diyl))tris(5,13,20-trioxo-4,6,12,19-tetraazatetracosane-1,3,7-tricarboxylic acid)]

IC50 (PSMA): 90 nM
Compound: O=C(O)CC[C@H](NC(=O)N[C@@H](CCCCNC(=O)CCCCCNC(=O)CCCCn1ccnc1CN1CCN(Cc2nccn2CCCCC(=O)NCCCCCC(=O)NCCCC[C@H](NC(=O)N[C@@H](CCC(=O)O)C(=O)O)C(=O)O)CCN(Cc2nccn2CCCCC(=O)NCCCCCC(=O)NCCCC[C@H](NC(=O)N[C@@H](CCC(=O)O)C(=O)O)C(=O)O)CC1)C(=O)O)C(=O)O [^nat/68Ga-8, metal not drawn]
Protein binding (human serum proteins): 68.2 ± 1.5% | fraction unbound at 1 h (human serum proteins): ~0.35 | Cell internalization [1, 5]: 0.08 ± 0.02% | Cell uptake [1]: negligible | Metabolic stability in human serum [2]: no significant degradation

IC50 (PSMA): 5.9 nM
Compound: O=C(O)CC[C@H](NC(=O)N[C@@H](CCCCNC(=O)[C@H](Cc1ccc2ccccc2c1)NC(=O)[C@H]1CC[C@H](CNC(=O)CCCCn2ccnc2CN2CCN(Cc3nccn3CCCCC(=O)NC[C@H]3CC[C@H](C(=O)N[C@@H](Cc4ccc5ccccc5c4)C(=O)NCCCC[C@H](NC(=O)N[C@@H](CCC(=O)O)C(=O)O)C(=O)O)CC3)CCN(Cc3nccn3CCCCC(=O)NC[C@H]3CC[C@H](C(=O)N[C@@H](Cc4ccc5ccccc5c4)C(=O)NCCCC[C@H](NC(=O)N[C@@H](CCC(=O)O)C(=O)O)C(=O)O)CC3)CC2)CC1)C(=O)O)C(=O)O [Compound 9]
Cell internalization [1, 5]: 17.8 ± 2.5%

IC50 (PSMA): 18.5 nM
Compound: O=C(O)CCc1ccc(O)c(CN(CCN(CC(=O)O)Cc2cc(CCC(=O)NCCCCCC(=O)NCCCC[C@H](NC(=O)N[C@@H](CCC(=O)O)C(=O)O)C(=O)O)ccc2O)CC(=O)O)c1 [PSMA-11, Glu-CO-Lys-Ahx-HBED-CC, reference compound]

IC50 (PSMA): 264 nM
Compound: O=C(O)CC[C@H](NC(=O)N[C@@H](CCCCNC(=O)CCCCn1ccnc1CN1CCN(Cc2nccn2CCCCC(=O)NCCCC[C@H](NC(=O)N[C@@H](CCC(=O)O)C(=O)O)C(=O)O)CCN(Cc2nccn2CCCCC(=O)NCCCC[C@H](NC(=O)N[C@@H](CCC(=O)O)C(=O)O)C(=O)O)CC1)C(=O)O)C(=O)O [Compound 7, (2S,2'S,2''S)−2,2',2''-(((((1S,1'S,1''S)-((5,5',5''-(((1,4,7-triazonane-1,4,7-triyl)tris(methylene))tris(1H-imidazole-2,1-diyl))tris(pentanoyl))tris(azanediyl))tris(1-carboxypentane-5,1-diyl))tris(azanediyl))tris(carbonyl))tris(azanediyl))triglutaric acid]
